Laboratory results published in US20100056526A1, “HETEROMONOCYCLIC COMPOUND AND USE THEREOF” (Takeda Pharmaceutical Company Limited, priority 2006, published 2010).

Experiments:
human AT1 receptor = target: T1, human AT1 receptor (Homo sapiens, UniProt P30556); test: Binding assay using human AT1 receptor-expressing CHO-K1 cell membrane fraction ([125I]-angiotensin II); settings: 22.5 pM [125I]-angiotensin II, 9 μg AT1 membrane, 1 hr room temperature; read-out: AT1 receptor binding inhibitory action (IC50 (nM))
T1 construct: expressed in transfected cells; host or cells: CHO-K1
T1 sequence (P30556 1-359): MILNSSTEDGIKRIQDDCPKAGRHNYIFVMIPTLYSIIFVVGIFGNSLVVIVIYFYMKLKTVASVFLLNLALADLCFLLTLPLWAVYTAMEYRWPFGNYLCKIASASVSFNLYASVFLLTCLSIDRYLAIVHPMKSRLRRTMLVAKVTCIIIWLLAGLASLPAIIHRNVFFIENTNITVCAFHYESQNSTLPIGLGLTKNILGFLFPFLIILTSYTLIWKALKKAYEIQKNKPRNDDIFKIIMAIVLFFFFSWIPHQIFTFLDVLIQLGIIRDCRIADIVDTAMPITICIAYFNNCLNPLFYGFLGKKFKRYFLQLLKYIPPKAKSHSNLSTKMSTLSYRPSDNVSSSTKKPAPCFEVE
In short: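 Radioligand displacement: test compound competed with [125I]-angiotensin II (22.5 pM) on stable CHO-K1 AT1 membrane fraction, 1 hr, room temperature, Tris pH 7.4/MgCl2 buffer ± 0.3 mg/mL BSA. Filtration then scintillation counting; 1 μM CV-11974 defined nonspecific binding. Values are IC50s.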

PPARγ = target: T2, PPARγ (Homo sapiens, UniProt P37231); test: Evaluation of PPARγ activating action (luciferase reporter in PPARγ:RXRα:4ERPP/CHO-K1 cells); type: cell-based; settings: CHO-K1, 24 h; test compound 10^−6 M; luciferase activity relative to control compound X (1 μM) = 100%, non-administration group = 0%; read-out: PPARγ activating action (activation % (10^−6 M))
T2 construct: expressed in transfected cells; host or cells: CHO-K1
T2 sequence (P37231 1-477 isoform P37231-2): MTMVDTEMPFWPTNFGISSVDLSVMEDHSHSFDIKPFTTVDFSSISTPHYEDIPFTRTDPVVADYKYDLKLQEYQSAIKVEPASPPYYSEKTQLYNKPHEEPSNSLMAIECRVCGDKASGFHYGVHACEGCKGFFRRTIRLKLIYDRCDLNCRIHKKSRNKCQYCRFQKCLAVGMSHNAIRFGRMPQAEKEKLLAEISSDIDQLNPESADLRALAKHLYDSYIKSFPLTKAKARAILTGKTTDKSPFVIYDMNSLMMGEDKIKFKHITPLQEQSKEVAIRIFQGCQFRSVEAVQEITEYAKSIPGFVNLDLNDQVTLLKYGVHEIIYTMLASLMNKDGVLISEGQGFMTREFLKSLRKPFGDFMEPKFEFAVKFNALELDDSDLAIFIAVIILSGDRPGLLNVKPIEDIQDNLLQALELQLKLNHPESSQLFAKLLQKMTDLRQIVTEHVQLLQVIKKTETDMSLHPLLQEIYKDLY
T2 sequence (P19793 1-462 partner): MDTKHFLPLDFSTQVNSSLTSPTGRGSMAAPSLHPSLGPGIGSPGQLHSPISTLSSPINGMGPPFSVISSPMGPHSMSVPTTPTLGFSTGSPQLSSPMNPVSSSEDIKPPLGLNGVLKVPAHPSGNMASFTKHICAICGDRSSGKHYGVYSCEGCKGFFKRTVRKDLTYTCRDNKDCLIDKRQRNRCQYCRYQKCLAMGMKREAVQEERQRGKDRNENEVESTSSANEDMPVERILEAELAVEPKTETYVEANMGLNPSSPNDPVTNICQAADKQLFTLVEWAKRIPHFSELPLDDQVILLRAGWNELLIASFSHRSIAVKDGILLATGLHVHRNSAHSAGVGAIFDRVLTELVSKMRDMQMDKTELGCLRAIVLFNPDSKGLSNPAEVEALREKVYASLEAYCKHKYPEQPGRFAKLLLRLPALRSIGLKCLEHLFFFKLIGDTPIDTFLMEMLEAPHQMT
In short: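 Activity is expressed as percent, where vehicle gives 0% and 1 μM compound X gives 100%, based on luciferase luminescence. Reporter CHO-K1 cells co-expressing PPARγ:RXRα with a 4ERPP-driven luciferase were incubated with test compound for one day at 37 °C in medium with 0.1% fatty acid-free BSA.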

Row | SMILES | IC50 (human AT1 receptor) [nM] | activation at 1 µM (PPARγ) [%]
1 | CCCCc1nc(C)n(Cc2noc(-c3ccccc3)n2)c(=O)c1Cc1ccc(-c2ccccc2-c2noc(=O)[nH]2)cc1 [Example 152, 6-butyl-2-methyl-5-{[2′-(5-oxo-4,5-dihydro-1,2,4-oxadiazol-3-yl)biphenyl-4-yl]methyl}-3-[(5-phenyl-1,2,4-oxadiazol-3-yl)methyl]pyrimidin-4(3H)-one] | 2.1 | 64.8
2 | CCCCc1nc(C)n(CC2CCCCO2)c(=O)c1Cc1ccc(-c2ccccc2-c2noc(=O)[nH]2)cc1 (centres unmarked) [Example 160, 6-butyl-2-methyl-5-{[2′-(5-oxo-4,5-dihydro-1,2,4-oxadiazol-3-yl)biphenyl-4-yl]methyl}-3-(tetrahydro-2H-pyran-2-ylmethyl)pyrimidin-4(3H)-one] | 1.8 | 61.6
3 | CCCCc1nc(C)n(Cc2c(F)cccc2F)c(=O)c1Cc1ccc(-c2ccccc2-c2noc(=O)[nH]2)cc1 [Example 165, 6-butyl-3-(2,6-difluorobenzyl)-2-methyl-5-{[2′-(5-oxo-4,5-dihydro-1,2,4-oxadiazol-3-yl)biphenyl-4-yl]methyl}pyrimidin-4(3H)-one] | 1.7 | 59
4 | CCCc1ncn(-c2ccc3c(c2)CC(C)(C)O3)c(=O)c1Cc1ccc(-c2ccccc2-c2noc(=O)[nH]2)cc1 [Example 178, 3-(2,2-dimethyl-2,3-dihydro-1-benzofuran-5-yl)-5-{[2′-(5-oxo-4,5-dihydro-1,2,4-oxadiazol-3-yl)biphenyl-4-yl]methyl}-6-propylpyrimidin-4(3H)-one] | 2.6 | 37.5
5 | CCCCc1nc(C)n(-c2ccc(C)c(C)c2)c(=O)c1Cc1ccc(-c2ccccc2-c2noc(=O)[nH]2)cc1 [Example 202, 6-butyl-3-(3,4-dimethylphenyl)-2-methyl-5-{[2′-(5-oxo-4,5-dihydro-1,2,4-oxadiazol-3-yl)biphenyl-4-yl]methyl}pyrimidin-4(3H)-one] | 1.5 | 25.3
6 | CCCCc1nc(C)n(-c2ccccc2)c(=O)c1Cc1c(F)cc(-c2ccccc2-c2noc(=O)[nH]2)cc1F [Example 204, 6-butyl-5-{[3,5-difluoro-2′-(5-oxo-4,5-dihydro-1,2,4-oxadiazol-3-yl)biphenyl-4-yl]methyl}-2-methyl-3-phenylpyrimidin-4(3H)-one] | 1.6 | 27.4
7 | CCCCc1nc(C)n(-c2ccoc2)c(=O)c1Cc1ccc(-c2ccccc2-c2noc(=O)[nH]2)cc1 [Example 206, 6-butyl-3-(3-furyl)-2-methyl-5-{[2′-(5-oxo-4,5-dihydro-1,2,4-oxadiazol-3-yl)biphenyl-4-yl]methyl}pyrimidin-4(3H)-one] | 2 | 21.8
8 | CCCCc1nc(C)n(-c2cccc(C(C)(C)O)c2)c(=O)c1Cc1ccc(-c2ccccc2-c2noc(=O)[nH]2)cc1 [Example 217, 6-butyl-3-[3-(1-hydroxy-1-methylethyl)phenyl]-2-methyl-5-{[2′-(5-oxo-4,5-dihydro-1,2,4-oxadiazol-3-yl)biphenyl-4-yl]methyl}pyrimidin-4(3H)-one] | 1.1 | 26.8
9 | CCCCc1nc(C)n(-c2ccc(OCC)cc2)c(=O)c1Cc1ccc(-c2ccccc2-c2noc(=O)[nH]2)cc1 [Example 222, 6-butyl-3-(4-ethoxyphenyl)-2-methyl-5-{[2′-(5-oxo-4,5-dihydro-1,2,4-oxadiazol-3-yl)biphenyl-4-yl]methyl}pyrimidin-4(3H)-one] | 1.3 | 29.3
10 | CCCc1nc(C)n(-c2ccc(OC(C)CC)cc2)c(=O)c1Cc1ccc(-c2ccccc2-c2noc(=O)[nH]2)cc1 (centres unmarked) [Example 271, 3-(4-sec-butoxyphenyl)-2-methyl-5-{[2′-(5-oxo-4,5-dihydro-1,2,4-oxadiazol-3-yl)biphenyl-4-yl]methyl}-6-propylpyrimidin-4(3H)-one] | 1.9 | 37.1

The remaining lines, values ahead:

Row | IC50 (human AT1 receptor) [nM] | activation at 1 µM (PPARγ) [%] | SMILES
11 | 1.2 | 33.9 | CCCCc1nc(C)n(-c2ccc3c(c2)CC(C)(C)O3)c(=O)c1Cc1ccc(-c2ccccc2-c2noc(O)n2)cc1 [Example 234, 6-butyl-3-(2,2-dimethyl-2,3-dihydro-1-benzofuran-5-yl)-2-methyl-5-{[2′-(5-oxo-4,5-dihydro-1,2,4-oxadiazol-3-yl)biphenyl-4-yl]methyl}pyrimidin-4(3H)-one]
12 | 1.5 | 27.6 | CCCc1nc(C)n(-c2ccc3c(c2)CC(C)O3)c(=O)c1Cc1ccc(-c2ccccc2-c2noc(=O)[nH]2)cc1 (centres unmarked) [Example 235, 2-methyl-3-(2-methyl-2,3-dihydro-1-benzofuran-5-yl)-5-{[2′-(5-oxo-4,5-dihydro-1,2,4-oxadiazol-3-yl)biphenyl-4-yl]methyl}-6-propylpyrimidin-4(3H)-one]
13 | 1.8 | 31.6 | CCCc1nc(C)n(-c2ccc3c(c2)CC(C)(C)O3)c(=O)c1Cc1ccc(-c2ccccc2-c2noc(=O)[nH]2)cc1 [Example 239, 3-(2,2-dimethyl-2,3-dihydro-1-benzofuran-5-yl)-2-methyl-5-{[2′-(5-oxo-4,5-dihydro-1,2,4-oxadiazol-3-yl)biphenyl-4-yl]methyl}-6-propylpyrimidin-4(3H)-one]
14 | 1.6 | 30.5 | CCCOc1ccc(-n2c(C)nc(CCC)c(Cc3ccc(-c4ccccc4-c4noc(=O)[nH]4)cc3)c2=O)cc1 [Example 249, 2-methyl-5-{[2′-(5-oxo-4,5-dihydro-1,2,4-oxadiazol-3-yl)biphenyl-4-yl]methyl}-3-(4-propoxyphenyl)-6-propylpyrimidin-4(3H)-one]
15 | 1.7 | 30.5 | CCCc1nc(C)n(-c2ccc(OC3CCC3)cc2)c(=O)c1Cc1ccc(-c2ccccc2-c2noc(=O)[nH]2)cc1 [Example 255, 3-[4-(cyclobutyloxy)phenyl]-2-methyl-5-{[2′-(5-oxo-4,5-dihydro-1,2,4-oxadiazol-3-yl)biphenyl-4-yl]methyl}-6-propylpyrimidin-4(3H)-one]
16 | 2 | 45.7 | CCCc1nc(C)n(-c2ccc(OC(CC)CC)cc2)c(=O)c1Cc1ccc(-c2ccccc2-c2noc(=O)[nH]2)cc1 [Example 256, 3-[4-(1-ethylpropoxy)phenyl]-2-methyl-5-{[2′-(5-oxo-4,5-dihydro-1,2,4-oxadiazol-3-yl)biphenyl-4-yl]methyl}-6-propylpyrimidin-4(3H)-one]
17 | 1.7 | 27.8 | CCCc1nc(C)n(-c2ccc(OC3CC3)cc2)c(=O)c1Cc1ccc(-c2ccccc2-c2noc(=O)[nH]2)cc1 [Example 265, 3-[4-(cyclopropyloxy)phenyl]-2-methyl-5-{[2′-(5-oxo-4,5-dihydro-1,2,4-oxadiazol-3-yl)biphenyl-4-yl]methyl}-6-propylpyrimidin-4(3H)-one]
18 | 1.8 | 17 | CCCc1nc(C)n(-c2cc(F)c3c(c2)CC(C)(C)O3)c(=O)c1Cc1ccc(-c2ccccc2-c2noc(=O)[nH]2)cc1 [Example 275, 3-(7-fluoro-2,2-dimethyl-2,3-dihydro-1-benzofuran-5-yl)-2-methyl-5-{[2′-(5-oxo-4,5-dihydro-1,2,4-oxadiazol-3-yl)biphenyl-4-yl]methyl}-6-propylpyrimidin-4(3H)-one]
19 | 1.8 | 33.5 | CCCc1nc(C)n(-c2ccc(OC(C)CF)cc2)c(=O)c1Cc1ccc(-c2ccccc2-c2noc(=O)[nH]2)cc1 (centres unmarked) [Example 277, 3-[4-(2-fluoro-1-methylethoxy)phenyl]-2-methyl-5-{[2′-(5-oxo-4,5-dihydro-1,2,4-oxadiazol-3-yl)biphenyl-4-yl]methyl}-6-propylpyrimidin-4(3H)-one]
